Assay results taken from ChEMBL document CHEMBL1811917 (J Med Chem, 2011).

Legend:
[1] = biological target: T1, Arginase (Plasmodium falciparum, UniProt Q8I384); experiment: Inhibition of Plasmodium falciparum arginase using L-arginine as substrate by colorimetric assay
T1 sequence (Q8I384 whole entry): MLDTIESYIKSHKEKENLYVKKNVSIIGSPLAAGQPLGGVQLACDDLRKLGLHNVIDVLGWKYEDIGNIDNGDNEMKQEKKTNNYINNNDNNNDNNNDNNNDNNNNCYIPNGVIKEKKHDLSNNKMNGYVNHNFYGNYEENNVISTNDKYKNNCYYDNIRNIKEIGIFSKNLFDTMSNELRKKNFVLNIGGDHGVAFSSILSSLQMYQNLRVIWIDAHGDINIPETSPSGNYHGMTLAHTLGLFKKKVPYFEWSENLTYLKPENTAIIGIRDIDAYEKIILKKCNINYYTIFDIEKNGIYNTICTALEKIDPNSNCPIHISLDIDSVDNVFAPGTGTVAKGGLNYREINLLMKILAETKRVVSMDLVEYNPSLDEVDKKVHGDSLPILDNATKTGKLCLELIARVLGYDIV

[2] = biological target: T2, Arginase-1 (Homo sapiens, UniProt P05089); experiment: Binding affinity to human arginase 1 using L-arginine as substrate by surface plasmon resonance assay
T2 sequence (P05089 whole entry): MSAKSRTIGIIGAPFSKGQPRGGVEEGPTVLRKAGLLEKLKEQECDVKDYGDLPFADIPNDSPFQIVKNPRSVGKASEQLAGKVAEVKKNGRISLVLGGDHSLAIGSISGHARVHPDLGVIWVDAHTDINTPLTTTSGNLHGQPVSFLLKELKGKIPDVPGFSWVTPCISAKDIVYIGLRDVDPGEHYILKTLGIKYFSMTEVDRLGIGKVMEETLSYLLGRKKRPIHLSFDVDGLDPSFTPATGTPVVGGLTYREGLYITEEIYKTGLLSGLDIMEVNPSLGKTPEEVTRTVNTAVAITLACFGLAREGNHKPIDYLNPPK

[3] = biological target: T1, Arginase; experiment: Binding affinity to Plasmodium falciparum arginase
[4] = biological target: T3, Arginase-2, mitochondrial (Homo sapiens, UniProt P78540); experiment: Binding affinity to human arginase 2
T3 sequence (P78540 whole entry): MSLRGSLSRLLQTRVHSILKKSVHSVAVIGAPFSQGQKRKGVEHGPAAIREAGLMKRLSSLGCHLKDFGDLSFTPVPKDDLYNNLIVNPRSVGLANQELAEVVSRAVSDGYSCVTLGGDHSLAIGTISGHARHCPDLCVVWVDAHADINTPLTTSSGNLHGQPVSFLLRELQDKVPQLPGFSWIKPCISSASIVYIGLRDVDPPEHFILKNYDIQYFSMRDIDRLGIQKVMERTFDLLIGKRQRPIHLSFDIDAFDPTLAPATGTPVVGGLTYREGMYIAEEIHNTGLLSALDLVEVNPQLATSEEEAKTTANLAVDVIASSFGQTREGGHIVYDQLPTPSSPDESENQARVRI

[5] = biological target: T2, Arginase-1; experiment: Binding affinity to human arginase 1

Row | Kd [2] | SMILES | Ki [1] | Kd [3] | Ki [4] | Kd [5]
1 | 880 nM | CC(N)(CCCCB(O)O)C(=O)O (racemic) | 260 µM |  |  | 
2 | 34000 nM | NC(CCCCB(O)O)(C(=O)O)C(F)F (racemic) |  |  |  | 

Row | SMILES | Kd [2] | Ki [1] | Kd [3] | Ki [4] | Kd [5]
3 | N[C@@H](CCCCB(O)O)C(=O)O | 18 nM | 10 µM | 11 µM | 8.5 nM | 5 nM
